In paper PMC9942557, “Bolaamphiphile Analogues of 12-bis-THA Cl2 Are Potent Antimicrobial Therapeutics with Distinct Mechanisms of Action against Bacterial, Mycobacterial, and Fungal Pathogens” (mSphere, 2022):
Where two headings read alike, the source gives them in different places.

Experiments:
[1] = test system: EMR Staphylococcus aureus 16 NCTC 13277; test: Broth microdilution MIC; assay type: cell-based
C. parapsilosis 3209 = test: Broth microdilution MIC; assay type: cell-based
[2] = test system: VS Enterococcus faecalis NCTC 775; test: Broth microdilution MIC; assay type: cell-based
[3] = test system: Escherichia coli ATCC 25922; test: Intrahemocoelic G. mellonella infection model; assay type: in vivo, Galleria mellonella; details: single 10-mg/kg dose 1 h after infection
Procedure: The antimicrobial activities of DQC, CM2, and its analogues Quino-bola, Penta-bola, Hepta-bola, and Octa-bola against Escherichia coli ATCC 25922 were tested in Galleria mellonella larvae. All assays were performed on two separate occasions using a group size of 10 larvae; the larvae were kept in separate petri dishes and in a static incubator at 37°C during the period of the experiment. A suspension of E. coli ATCC 25922 was prepared by transferring two colonies of E. coli ATCC 25922 from a fresh agar plate into PBS and adjusting the absorbance to a McFarland 0.5 standard. The number of CFU per milliliter of this suspension was determined and corresponded to 1 × 10^8 CFU/mL. Larvae were injected beneath the tegument with 10 μL of a 1 × 10^7-CFU/mL bacteria suspension, corresponding to 1 × 10^5 CFU per larva. A 50-μL Hamilton syringe with a G27 needle was used for the injection. […] Ten microliters of stock solution was injected into each larva 1 h after infection (10 mg/kg). Levofloxacin (LVX; 50 μg/mL = 2 mg/kg) and PBS were used as positive and negative controls, respectively. A noninfected PBS injection was included to control for the effects of injection. Survival was monitored over a period of 70 to 72 h. Changes in G. mellonella survival were analyzed by the log rank (Mantel-Cox) method and plotted as Kaplan-Meier survival curves using GraphPad Prism version 7.

[4] = test system: Pseudomonas aeruginosa NCTC 13437; test: Broth microdilution MIC; assay type: cell-based
P. aeruginosa PAO1 = test: Checkerboard synergy assay; assay type: cell-based, Pseudomonas aeruginosa; details: for MIC: Pseudomonas aeruginosa, read-out: MIC Alone Bolalipid
C. auris temp probe = test: Broth microdilution MIC; assay type: cell-based, Candida auris; details: C. auris temp probe
[5] = test system: Escherichia coli NCTC 12923; test: Broth microdilution MIC; assay type: cell-based
[6] = test system: VR Enterococcus faecalis NCTC 12201; test: Broth microdilution MIC; assay type: cell-based
C. parapsilosis = test: Broth microdilution MIC; assay type: cell-based
[7] = test system: Pseudomonas aeruginosa PAO1; test: Broth microdilution MIC; assay type: cell-based
Klebsiella pneumoniae M6 = test: Broth microdilution MIC; assay type: cell-based
[8] = test system: EMR Staphylococcus aureus 15 NCTC 13616; test: Broth microdilution MIC; assay type: cell-based
HeLa = test: In vitro toxicity for cell line; assay type: cell-based, human; details: average ± standard error from 3 independent repeats; for EC50: Homo sapiens, read-out: Toxicity (EC50)
From the text: (§1) TABLE 2 Toxicity of bolaamphiphiles for two cell lines^a | column: Toxicity (EC50 [μg/ml]) of: / 12-bis-THA Cl2; Toxicity (EC50 [μg/ml]) of: / Dequalinium; Toxicity (EC50 [μg/ml]) of: / Quino-bola; Toxicity (EC50 [μg/ml]) of: / Penta-bola; Toxicity (EC50 [μg/ml]) of: / Hepta-bola; Toxicity (EC50 [μg/ml]) of: / Octa-bola; Toxicity (EC50 [μg/ml]) of: / Octa-C10; Toxicity (EC50 [μg/ml]) of: / Octa-C8; Toxicity (EC50 [μg/ml]) of: / Octa-C6

HEK293 = test: In vitro toxicity for cell line; assay type: cell-based, human; details: HEK293, average ± standard error from 3 independent repeats; for EC50: Homo sapiens, read-out: Toxicity (EC50)
From the text: as §1

C. tropicalis 8760 = test: Broth microdilution MIC; assay type: cell-based; details: C. tropicalis 8760
[9] = test system: Klebsiella pneumoniae NCTC 13368; test: Broth microdilution MIC; assay type: cell-based
[10] = test system: Acinetobacter baumannii ATCC 17978; test: Broth microdilution MIC; assay type: cell-based
[11] = test system: Acinetobacter baumannii AYE; test: Broth microdilution MIC; assay type: cell-based
M. smegmatis mc^2 155 = test: Broth microdilution MIC (Middlebrook 7H9); assay type: cell-based, Mycobacterium smegmatis
M. tuberculosis Bleupan = test: microbe, parasite or virus in culture; assay type: cell-based, Mycobacterium tuberculosis
C. albicans 3179 = test: Broth microdilution MIC; assay type: cell-based, Candida albicans; details: C. albicans 3179
C. albicans 3281 = test: Broth microdilution MIC; assay type: cell-based, Candida albicans; details: C. albicans 3281
[12] = test system: VR Enterococcus faecium NCTC 12204; test: Broth microdilution MIC; assay type: cell-based
Fungi (avg) = test: Selectivity index (toxicity/potency); assay type: cell-based, Candida spp.; details: ratio of average toxicity (HEK293 and HeLa) to average potency
From the text: (§2) TABLE 3 Selectivity indices of bolaamphiphiles | column: Selectivity of^a: / 12-bis-THA Cl2; Selectivity of^a: / Dequalinium; Selectivity of^a: / Quino-bola; Selectivity of^a: / Penta-bola; Selectivity of^a: / Hepta-bola; Selectivity of^a: / Octa-bola; Selectivity of^a: / Octa-C10; Selectivity of^a: / Octa-C8; Selectivity of^a: / Octa-C6

[13] = test system: Gram-negative bacteria (avg); test: Selectivity index (toxicity/potency); assay type: cell-based; details: ratio of average toxicity (HEK293 and HeLa) to average potency
From the text: as §2

[14] = test system: Gram-positive bacteria (avg); test: Selectivity index (toxicity/potency); assay type: cell-based; details: ratio of average toxicity (HEK293 and HeLa) to average potency
[15] = EMR Staphylococcus aureus 16 NCTC 13277
[16] = VR Enterococcus faecalis NCTC 12201
[17] = EMR Staphylococcus aureus 15 NCTC 13616
[18] = VR Enterococcus faecium NCTC 12204
[19] = Lodderomyces parapsilosis, read-out: MIC
[20] = Candidozyma auris, read-out: MIC
[21] = Candida tropicalis, read-out: MIC
[22] = Mycolicibacterium smegmatis, MC^2155, read-out: MIC
[23] = Candida albicans, read-out: MIC

Nc1c2c([n+](CCCCCCCCCCCC[n+]3c4c(c(N)c5ccccc53)CCCC4)c3ccccc13)CCCC2 [12-bis-THA Cl2, 12,12′-(Dodecane-1,12-diyl)-bis-(9-amino-1,2,3,4-tetrahydroacridinium) chloride]
MIC [1, 15]: 0.125 mg/L
MIC (C. parapsilosis 3209): 1 mg/L
MIC [2]: 2 mg/L
protection (survival over 72 h) [3]: survival was somewhat better than that obtained in the absence of treatment
MIC [4]: 32 mg/L
MIC alone Bolalipid (P. aeruginosa PAO1): 32 mg/L
MIC (C. auris temp probe): 2 mg/L
MIC [5]: 4 mg/L
MIC [6, 16]: 1 mg/L
MIC (C. parapsilosis): 2 mg/L
MIC [7]: 32 mg/L
MIC (Klebsiella pneumoniae M6): 16 mg/L
MIC [8, 17]: 0.25 mg/L
Toxicity (EC50) (HeLa): 7.1 ± 2.0 mg/L
Toxicity (EC50) (HEK293): 5.5 ± 2.0 mg/L
MIC (C. tropicalis 8760): 0.25 mg/L
MIC [9]: 32 mg/L
MIC [10]: 16 mg/L
MIC ([11]; Acinetobacter baumannii AYE): 16 mg/L
MIC (M. smegmatis mc^2 155): 0.28 mg/L
MIC (M. tuberculosis Bleupan): 0.87 mg/L
MIC (C. albicans 3179): 0.25 mg/L
MIC (C. albicans 3281): 0.25 mg/L
MIC [12, 18]: 0.5 mg/L

Cc1cc(N)c2ccccc2[n+]1CCCCCCCCCC[n+]1c(C)cc(N)c2ccccc21 [Dequalinium, dequalinium chloride, reference compound]
MIC ([1]; NCTC13277, EMR Staphylococcus aureus 16 NCTC 13277, read-out: MIC): 4 mg/L
MIC (C. parapsilosis 3209; [19]): 4 mg/L
Selectivity index (Fungi (avg)): 26.8
MIC ([2]; NCTC775, read-out: MIC): 32 mg/L
protection (survival over 72 h) [3]: protective
MIC ([4]; NCTC13437, read-out: MIC): > 32 mg/L
MIC (P. aeruginosa PAO1): > 32 mg/L
MIC (C. auris temp probe; [20]): 4 mg/L
MIC ([5]; NCTC12923, read-out: MIC): 32 mg/L
MIC ([6]; NCTC12201, VR Enterococcus faecalis NCTC 12201, read-out: MIC): 16 mg/L
MIC (C. parapsilosis; [19]): 8 mg/L
MIC ([7]; read-out: MIC): > 32 mg/L
MIC (Klebsiella pneumoniae M6; read-out: MIC): > 32 mg/L
MIC ([8]; NCTC13616, EMR Staphylococcus aureus 15 NCTC 13616, read-out: MIC): 8 mg/L
EC50 (HeLa): 34.7 ± 13.9 mg/L
EC50 (HEK293): 9.9 ± 3.3 mg/L
Selectivity index [13]: 0.69
MIC (C. tropicalis 8760; [21]): 0.5 mg/L
MIC ([9]; NCTC13368, read-out: MIC): > 32 mg/L
MIC ([10]; ATCC17978, read-out: MIC): 32 mg/L
MIC ([11]; Acinetobacter baumannii AYE, read-out: MIC): 32 mg/L
MIC (M. smegmatis mc^2 155; [22]): 0.68 mg/L
MIC (M. tuberculosis Bleupan; Mycobacterium tuberculosis, read-out: MIC): 3.51 mg/L
Selectivity index [14]: 2.65
MIC (C. albicans 3179; [23]): 0.5 mg/L
MIC (C. albicans 3281; [23]): 0.5 mg/L
MIC ([12]; NCTC12204, VR Enterococcus faecium NCTC 12204, read-out: MIC): 8 mg/L

Nc1c2c([n+](CCCCCCCCCCCC[n+]3c4c(c(N)c5ccccc53)CCC4)c3ccccc13)CCC2 [Penta-bola]
MIC [1, 15]: 0.5 mg/L
MIC (C. parapsilosis 3209): 1 mg/L
MIC [2]: 4 mg/L
protection (survival over 72 h) [3]: neither Quino-bola nor Penta-bola offered significant protection
MIC [4]: >32 mg/L
MIC alone Bolalipid (P. aeruginosa PAO1): 32 mg/L
MIC (C. auris temp probe): 2 mg/L
MIC [5]: 16 mg/L
MIC [6, 16]: 1 mg/L
MIC (C. parapsilosis): 1 mg/L
MIC [7]: 32 mg/L
MIC (Klebsiella pneumoniae M6): 32 mg/L
MIC [8, 17]: 0.5 mg/L
Toxicity (EC50) (HeLa): 9.5 ± 1.7 mg/L
Toxicity (EC50) (HEK293): 7.9 ± 1.2 mg/L
MIC (C. tropicalis 8760): 0.25 mg/L
MIC [9]: 32 mg/L
MIC [10]: 16 mg/L
MIC ([11]; Acinetobacter baumannii AYE): 32 mg/L
MIC (M. smegmatis mc^2 155): 0.10 mg/L
MIC (M. tuberculosis Bleupan): 0.19 mg/L
MIC (C. albicans 3179): 0.25 mg/L
MIC (C. albicans 3281): 0.25 mg/L
MIC [12, 18]: 1 mg/L

Cc1c(N)c2ccccc2[n+](CCCCCCCCCCCC[n+]2c(C)c(C)c(N)c3ccccc32)c1C [Quino-bola]
MIC ([1]; Staphylococcus aureus, NCTC13277): 1 mg/L
MIC (C. parapsilosis 3209; [19]): 0.5 to 2 mg/L
Selectivity index (Fungi (avg)): 31.8
MIC ([2]; NCTC775, read-out: MIC): 4 mg/L
protection (survival over 72 h) [3]: neither Quino-bola nor Penta-bola offered significant protection
MIC [4]: > 32 mg/L
MIC (P. aeruginosa PAO1): > 32 mg/L
MIC (C. auris temp probe; [20]): 2 mg/L
MIC ([5]; NCTC12923, read-out: MIC): 8 to 16 mg/L
MIC ([6]; Enterococcus faecalis, NCTC12201): 2 mg/L
MIC (C. parapsilosis; [19]): 2 mg/L
MIC ([7]; read-out: MIC): > 32 mg/L
MIC (Klebsiella pneumoniae M6; read-out: MIC): 32 mg/L
MIC ([8]; Staphylococcus aureus, NCTC13616): 1 mg/L
EC50 (HeLa): 13.9 ± 9.5 mg/L
EC50 (HEK293): 13.6 ± 0.6 mg/L
Selectivity index [13]: 0.55
MIC (C. tropicalis 8760; [21]): 0.25 mg/L
MIC [9]: 32 mg/L
MIC ([10]; ATCC17978, read-out: MIC): 16 mg/L
MIC ([11]; Acinetobacter baumannii): 32 mg/L
MIC (M. smegmatis mc^2 155; [22]): 0.49 mg/L
Selectivity index [14]: 8.94
MIC (C. albicans 3179; [23]): 0.25 mg/L
MIC (C. albicans 3281; [23]): 0.25 mg/L
MIC ([12]; Enterococcus faecium, NCTC12204): 2 mg/L
